# Results as given in patent publication US4745124A, “Orally effective anti-hypertensive agents” (priority 1983, dated 1988).
# Where “and” joins values, the source holds several entries; their conditions need not be identical. Equal values may be shown once.
# Assays:
# [1] = target: T1, angiotensin converting enzyme (human urinary ACE) (Homo sapiens, UniProt P12821); test: ACE activity assay, I50 (Example 216A); format: biochemical; conditions: human urinary ACE; Benzoyl-GlyHisLeu 1×10^-4 M; Hepes pH 8.0; 37° C; in vitro; read-out: I50
# T1 construct: ACE purified from human urine; from tissue; host or cells: human urine (ultrafiltration and Sephacryl S-200, first eluting peak; prepared as in Ryan et al., Tissue and Cell 10, 555 (1978))
# T1 sequence (P12821 30-1232 limits assumed): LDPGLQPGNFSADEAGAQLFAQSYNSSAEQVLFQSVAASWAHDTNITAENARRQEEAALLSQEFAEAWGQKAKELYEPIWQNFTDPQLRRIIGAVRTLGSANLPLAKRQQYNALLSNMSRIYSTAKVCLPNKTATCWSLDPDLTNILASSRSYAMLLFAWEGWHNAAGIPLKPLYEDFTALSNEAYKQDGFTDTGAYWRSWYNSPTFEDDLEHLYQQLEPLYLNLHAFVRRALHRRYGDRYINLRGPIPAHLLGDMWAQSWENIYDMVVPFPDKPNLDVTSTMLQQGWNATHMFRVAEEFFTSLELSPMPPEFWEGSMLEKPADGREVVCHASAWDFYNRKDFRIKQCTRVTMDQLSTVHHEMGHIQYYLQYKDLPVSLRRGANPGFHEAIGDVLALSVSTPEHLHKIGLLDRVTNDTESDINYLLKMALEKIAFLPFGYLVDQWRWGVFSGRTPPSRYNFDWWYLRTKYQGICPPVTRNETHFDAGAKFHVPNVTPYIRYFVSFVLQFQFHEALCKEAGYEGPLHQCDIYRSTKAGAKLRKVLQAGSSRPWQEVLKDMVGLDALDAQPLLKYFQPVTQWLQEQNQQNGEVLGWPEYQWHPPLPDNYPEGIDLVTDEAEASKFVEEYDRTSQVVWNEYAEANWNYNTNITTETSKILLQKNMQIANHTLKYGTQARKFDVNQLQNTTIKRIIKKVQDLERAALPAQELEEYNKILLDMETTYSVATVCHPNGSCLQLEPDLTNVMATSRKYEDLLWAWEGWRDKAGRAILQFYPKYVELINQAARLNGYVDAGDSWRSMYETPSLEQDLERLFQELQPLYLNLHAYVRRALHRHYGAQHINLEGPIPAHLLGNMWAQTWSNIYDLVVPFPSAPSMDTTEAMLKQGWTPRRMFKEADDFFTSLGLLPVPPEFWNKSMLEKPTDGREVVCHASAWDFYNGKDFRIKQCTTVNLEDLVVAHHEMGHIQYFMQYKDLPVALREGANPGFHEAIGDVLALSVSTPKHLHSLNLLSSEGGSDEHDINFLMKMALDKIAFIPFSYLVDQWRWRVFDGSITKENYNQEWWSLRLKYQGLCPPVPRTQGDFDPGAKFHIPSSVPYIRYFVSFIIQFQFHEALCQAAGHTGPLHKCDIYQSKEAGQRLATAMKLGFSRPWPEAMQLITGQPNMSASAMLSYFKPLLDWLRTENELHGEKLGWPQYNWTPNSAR
# [2] = system: pressor effects of angiotensin I; test: oral effectiveness: blood pressure response to angiotensin I in anesthetized rats; format: in vivo, rat
# In short: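 Fasted rats under pentobarbital anesthesia (50-60 mg/kg i.p.), ventilated, with carotid arterial pressure recorded; i.v. angiotensin I (80 ng, 160 ng or 400 ng/kg) or angiotensin II (80 ng) challenges repeated at timed intervals after oral gavage of compound (2-20 mg/kg, 10 mg, 17 or 23 μmol/kg) in aqueous NaHCO3.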
smiles,measurement,setting,value
"C[C@H](CSC(=O)C(Cc1ccccc1)NC(=O)c1ccccc1)C(=O)N1CCC[C@H]1C(=O)O (stereo partly drawn) [Compound (I), 2-benzoylphenylalanylthio-2-D-methylpropanoyl-L-proline]",IC50,[1],40 nM and 10 nM
same,Blood Pressure Response to 80 ng of Angiotensin I,"[2]; oral 2 mg/kg, 6 min, Rat 3",111 % of control
same,Blood Pressure Response to 80 ng of Angiotensin I,"[2]; oral 2 mg/kg, 12 min, Rat 3",93 % of control
same,Blood Pressure Response to 80 ng of Angiotensin I,"[2]; oral 2 mg/kg, 18 min, Rat 3",81 % of control
same,Blood Pressure Response to 80 ng of Angiotensin I,"[2]; oral 2 mg/kg, 24 min, Rat 3",85 % of control
same,Blood Pressure Response to 80 ng of Angiotensin I,"[2]; oral 2 mg/kg, 35 min, Rat 3",56 % of control
same,Blood Pressure Response to 80 ng of Angiotensin I,"[2]; oral 2 mg/kg, 58 min, Rat 3",56 % of control
same,Blood Pressure Response to 80 ng of Angiotensin I,"[2]; oral 2 mg/kg, 68 min, Rat 3",52 % of control
same,Blood Pressure Response to 80 ng of Angiotensin I,"[2]; oral 2 mg/kg, 88 min, Rat 3",30 % of control
same,Blood Pressure Response to 80 ng of Angiotensin I,"[2]; oral 2 mg/kg, 118 min, Rat 3",37 % of control
same,Blood Pressure Response to 80 ng of Angiotensin I,"[2]; oral 2 mg/kg, 138 min, Rat 3",60 % of control
same,Blood Pressure Response to 80 ng of Angiotensin I,"[2]; oral 2 mg/kg, 169 min, Rat 3",37 % of control
same,Blood Pressure Response to 80 ng of Angiotensin I,"[2]; oral 2 mg/kg, 185 min, Rat 3",37 % of control
same,Blood Pressure Response to 80 ng of Angiotensin I,"[2]; oral 2 mg/kg, 205 min, Rat 3",44 % of control
same,Blood Pressure Response to 80 ng of Angiotensin I,"[2]; oral 5 mg/kg, 6 min, Rat 2",67 % of control
same,Blood Pressure Response to 80 ng of Angiotensin I,"[2]; oral 5 mg/kg, 12 min, Rat 1",41 % of control
same,Blood Pressure Response to 80 ng of Angiotensin I,"[2]; oral 5 mg/kg, 12 min, Rat 2",57 % of control
same,Blood Pressure Response to 80 ng of Angiotensin I,"[2]; oral 5 mg/kg, 18 min, Rat 1",36 % of control
same,Blood Pressure Response to 80 ng of Angiotensin I,"[2]; oral 5 mg/kg, 24 min, Rat 2",43 % of control
same,Blood Pressure Response to 80 ng of Angiotensin I,"[2]; oral 5 mg/kg, 35 min, Rat 1",23 % of control
same,Blood Pressure Response to 80 ng of Angiotensin I,"[2]; oral 5 mg/kg, 35 min, Rat 2",37 % of control
same,Blood Pressure Response to 80 ng of Angiotensin I,"[2]; oral 5 mg/kg, 48 min, Rat 1",18 % of control
same,Blood Pressure Response to 80 ng of Angiotensin I,"[2]; oral 5 mg/kg, 48 min, Rat 2",17 % of control
same,Blood Pressure Response to 80 ng of Angiotensin I,"[2]; oral 5 mg/kg, 58 min, Rat 1",23 % of control
same,Blood Pressure Response to 80 ng of Angiotensin I,"[2]; oral 5 mg/kg, 58 min, Rat 2",17 % of control
same,Blood Pressure Response to 80 ng of Angiotensin I,"[2]; oral 5 mg/kg, 68 min, Rat 2",20 % of control
same,Blood Pressure Response to 80 ng of Angiotensin I,"[2]; oral 5 mg/kg, 78 min, Rat 2",17 % of control
same,Blood Pressure Response to 80 ng of Angiotensin I,"[2]; oral 5 mg/kg, 88 min, Rat 2",13 % of control
same,Blood Pressure Response to 80 ng of Angiotensin I,"[2]; oral 5 mg/kg, 118 min, Rat 1",23 % of control
same,Blood Pressure Response to 80 ng of Angiotensin I,"[2]; oral 5 mg/kg, 185 min, Rat 2",27 % of control
same,Blood Pressure Response to 80 ng of Angiotensin I,"[2]; oral 5 mg/kg, 205 min, Rat 2",33 % of control
same,Blood Pressure Response to 80 ng of Angiotensin I,"[2]; oral 5 mg/kg, 213 min, Rat 2",33 % of control
same,Blood Pressure Response to 80 ng of Angiotensin I,"[2]; oral 5 mg/kg, 226 min, Rat 2",43 % of control
same,duration of drug action,"[2]; oral, 2 or 5 mg/kg",> 226 min
